Like-named read-outs stand apart in the source and are kept apart here.
Columns and labels:
[1] = system: sensitive L5178Y mouse T-lymphoma cells (PAR); experiment: MTT antiproliferative assay, sensitive cells; assay type: cell-based; settings: 72 h, mean ± SD
Description: (§1) Non-cancer mouse embryonic fibroblasts (NIH/3T3) were also used.
(§2) L5178Y mouse T-lymphoma cells (ECACC catalog no. 87111908, US FDA, Silver Spring, MD, USA) were transfected with the pHa MDR1/A retrovirus as previously reported. The ABCB1 (P-gp) overexpressing cells were selected by culturing the infected cells with 60 ng/mL of colchicine (Sigma-Aldrich Chemie GmbH, Steinheim, Germany) to preserve the MDR phenotype. L5178Y (parental, PAR) mouse T-cell lymphoma cells and the human ABCB1-transfected subline were cultured in McCoy’s 5A supplemented with 10% heat-inactivated horse serum, 100 U/L L-glutamine, and 100 mg/L penicillin-streptomycin mixture, all obtained from Sigma-Aldrich. The mouse embryonic fibroblast (NIH 3T3) cell line was purchased from ATCC (CRL-1658) and was cultured in DMEM medium supplemented with 10% fetal bovine serum. These adherent cells were detached using 0.25% trypsin and 0.02% EDTA for 5 min at 37 °C. Before the antiproliferative assay using NIH 3T3 cell line, the cells were seeded in untreated 96-well flat bottomed microtiter plates, following a 4 h incubation period in a humidified atmosphere (5% CO2, 95% air) at 37 °C.
The assay was performed according to the previously applied experimental settings.

[2] = system: mouse embryonic fibroblasts (NIH/3T3); experiment: MTT antiproliferative assay, non-cancer cells; assay type: cell-based; settings: for IC50: non-cancer mouse embryonic fibroblasts, MTT, read-out: IC50 NIH/3T3 (C); for SI C/B (Selectivity Index): IC50 NIH/3T3 / IC50 MDR; for SI C/A (Selectivity Index): IC50 NIH/3T3 / IC50 PAR
Description: as §1
In addition, the antiproliferative activity of the compounds was also evaluated on non-cancerous mouse embryonic fibroblast cells (NIH/3T3), whose values were compared with those of PAR and MDR cells by evaluation of the selective index (SI) values. […] The highest selective index values (SIC/A = 9.39; SIC/B = 10.79) were found for the derivative bearing the trimethoxyphenyl substituent (17).
as §2

[3] = system: human ABCB1-transfected L5178Y mouse lymphoma cells; experiment: Checkerboard combination assay with doxorubicin; assay type: cell-based; parameters: key to CI at ED50 (combination index): CI <1 synergy, =1 additive, >1 antagonism; settings: MDR cells; for CI at ED50 (combination index): best ratio
Description: The in vitro interactions between the compounds and the well-known antitumor drug and P-gp substrate, doxorubicin, were evaluated in a combination chemotherapy model on human ABCB1-transfected mouse T-lymphoma cells. The nature of drug–drug interactions was assessed by determination of the combination index (CI) using the Chou and Talalay method (Figure 1), and therefore evaluated as synergistic (CI < 1), additive (CI = 1), or antagonistic (CI > 1).
Doxorubicin (2 mg/mL, Teva Pharmaceuticals, Budapest, Hungary) was serially diluted horizontally in 100 µL as previously described, starting with 8.6 µM. The resistance modifier was subsequently diluted vertically in 50 µL; the starting concentration was determined based on the IC50. […] The checkerboard plates were kept for 72 h at 37 °C in a CO2 incubator, and at the end of the incubation period, the cell growth was determined by MTT staining method, as described earlier. Drug interactions were evaluated using Calcusyn software. Each dose–response curve (for individual agents as well as combinations) was fit to a linear model using the median effect equation in order to obtain the median effect value (corresponding to the IC50) and slope (m). The goodness-of-fit was assessed using the linear correlation coefficient, r, and only data from analysis with r > 0.90 were presented. The extent of interaction between drugs was expressed using the combination index, in which a CI value close to 1 indicates additivity, while a CI < 1 is defined as synergy and a CI > 1 as antagonism.

[4] = system: human ABCB1-gene transfected L5178Y subline (MDR); settings: for RR (relative resistance ratio) = IC50MDR/IC50PAR: RR ≤ 0.5 means CS effect

Structure (SMILES) | IC50 [1] [µM] | IC50 [2] [µM] | CI at ED50 (combination index) [3] | SI C/B (Selectivity Index) [2] | SI C/A (Selectivity Index) [2] | IC50 ([2]; NIH3T3) [µM] | IC50 [4] [µM] | RR (relative resistance ratio) = IC50MDR/IC50PAR [4] | Interaction [3]
N.N.[Cl][Pt][Cl] [Cisplatin, reference compound] | 8.16 ± 1.7 | 1.06 ± 0.02 | – | – | – | – | – | – | –
CC[C@H]1CN(C)[C@H]2Cc3c([nH]c4ccccc34)C(=O)C[C@H]1C2C(=O)OC (stereo partly drawn) [Compound 1, Dregamine] | 37.2 ± 4.99 | – | 0.756 | >4.35 | >2.69 | > 100 | 23 ± 0.48 | 0.62 | –
CCCC=NN=C1CC2C(CC)CN(C)C(Cc3c1[nH]c1ccccc31)C2C(=O)OC (stereo not drawn) [Compound 3, 3-[(butylidene)hydrazineylidene]dregamine] | 53.1 ± 3.16 | – | 0.305 | >3.17 | >1.88 | > 100 | 31.5 ± 1.84 | 0.59 | Synergism
CCC1CN(C)C2Cc3c([nH]c4ccccc34)C(=NN=Cc3ccccc3Br)CC1C2C(=O)OC (stereo not drawn) [Compound 4, 3-[(2″-bromobenzylidene)hydrazineylidene]dregamine] | 19.1 ± 0.76 | – | – | 3.22 | 1.83 | 34.9 ± 5.63 | 10.9 ± 1.34 | 0.57 | –
CCC1CN(C)C2Cc3c([nH]c4ccccc34)C(=NN=Cc3ccccc3O)CC1C2C(=O)OC (stereo not drawn) [Compound 5, 3-[(2″-hydroxybenzylidene)hydrazineylidene]dregamine] | 14.8 ± 1.23 | – | 0.166 | 2.12 | 0.86 | 12.7 ± 2.29 | 5.96 ± 0.26 | – | Strong Synergism
CCC1CN(C)C2Cc3c([nH]c4ccccc34)C(=NN=Cc3cccc([N+](=O)[O-])c3)CC1C2C(=O)OC (stereo not drawn) [Compound 6, 3-[(3″-nitrobenzylidene)hydrazineylidene]dregamine] | 11.9 ± 1.09 | – | 0.279 | 1.65 | 1.21 | 14.4 ± 1.36 | 8.72 ± 0.52 | 0.73 | Strong Synergism
CCC1CN(C)C2Cc3c([nH]c4ccccc34)C(=NN=Cc3cccc(OC)c3)CC1C2C(=O)OC (stereo not drawn) [Compound 7, 3-[(3″-methoxybenzylidene)hydrazineylidene]dregamine] | 13.1 ± 0.74 | – | 0.152 | 2.61 | 0.92 | 12.1 ± 1.4 | 4.62 ± 0.14 | – | Strong Synergism
CCC1CN(C)C2Cc3c([nH]c4ccccc34)C(=NN=Cc3ccc(Br)cc3)CC1C2C(=O)OC (stereo not drawn) [Compound 8, 3-[(4″-bromobenzylidene)hydrazineylidene]dregamine] | 8.84 ± 0.76 | – | 0.451 | 1.56 | 1.32 | 11.7 ± 2.07 | 7.47 ± 0.17 | 0.85 | Synergism
CCC1CN(C)C2Cc3c([nH]c4ccccc34)C(=NN=Cc3ccc(Cl)cc3)CC1C2C(=O)OC (stereo not drawn) [Compound 9, 3-[(4″-chlorobenzylidene)hydrazineylidene]dregamine] | 14.5 ± 0.84 | – | 0.194 | 1.47 | 0.67 | 9.67 ± 0.94 | 6.57 ± 0.12 | – | Strong Synergism
CCC1CN(C)C2Cc3c([nH]c4ccccc34)C(=NN=Cc3ccc(C(F)(F)F)cc3)CC1C2C(=O)OC (stereo not drawn) [Compound 10, 3-[(4″-(trifluoromethyl)benzylidene)hydrazineylidene]dregamine] | 20.7 ± 0.8 | – | 0.272 | 1.06 | 0.60 | 12.4 ± 1.58 | 11.7 ± 0.67 | 0.56 | Strong Synergism
CCC1CN(C)C2Cc3c([nH]c4ccccc34)C(=NN=Cc3ccc(OC(F)(F)F)cc3)CC1C2C(=O)OC (stereo not drawn) [Compound 11, 3-[(4″-(trifluoromethoxy)benzylidene)hydrazineylidene]dregamine] | 23.7 ± 0.64 | – | 0.601 | 1.60 | 0.57 | 13.5 ± 1.14 | 8.4 ± 0.52 | – | Synergism
CCC1CN(C)C2Cc3c([nH]c4ccccc34)C(=NN=Cc3ccc(O)cc3)CC1C2C(=O)OC (stereo not drawn) [Compound 13, 3-[(4″-hydroxybenzylidene)hydrazineylidene]dregamine] | 26.4 ± 0.53 | – | 0.361 | 3.94 | 1.16 | 30.5 ± 0.95 | 7.75 ± 0.55 | – | Synergism
CCC1CN(C)C2Cc3c([nH]c4ccccc34)C(=NN=Cc3ccc(OC)cc3)CC1C2C(=O)OC (stereo not drawn) [Compound 14, 3-[(4″-methoxybenzylidene)hydrazineylidene]dregamine] | 18.1 ± 2.69 | – | 0.402 | 2.28 | 1.09 | 19.7 ± 0.41 | 8.64 ± 0.67 | – | Synergism
C=CCOc1ccc(C=NN=C2CC3C(CC)CN(C)C(Cc4c2[nH]c2ccccc42)C3C(=O)OC)cc1 (stereo not drawn) [Compound 15, 3-[(4″-(allyloxy)benzylidene)hydrazineylidene]dregamine] | 12.6 ± 1.06 | – | 0.177 | 2.32 | 1.18 | 14.9 ± 0.72 | 6.41 ± 0.33 | 0.51 | Strong Synergism
CCC1CN(C)C2Cc3c([nH]c4ccccc34)C(=NN=Cc3ccc(OCc4ccccc4)cc3)CC1C2C(=O)OC (stereo not drawn) [Compound 16, 3-[(4″-(benzyloxy)benzylidene)hydrazineylidene]dregamine] | 8.93 ± 0.75 | – | 0.34 | 3.12 | 2.04 | 18.3 ± 1.3 | 5.86 ± 0.54 | 0.66 | Synergism
CCC1CN(C)C2Cc3c([nH]c4ccccc34)C(=NN=Cc3c(O)ccc4ccccc34)CC1C2C(=O)OC (stereo not drawn) [Compound 19, 3-[((2″-hydroxy-1″naphthalenyl)methylene)hydrazineylidene]dregamine] | 12.9 ± 0.35 | – | 0.222 | 1.35 | 1.35 | 17.5 ± 1.03 | 12.9 ± 0.35 | 1.00 | Strong Synergism
CCC1CN(C)C2Cc3c([nH]c4ccccc34)C(=NN=Cc3c[nH]c4cc(Br)ccc34)CC1C2C(=O)OC (stereo not drawn) [Compound 21, 3-[((6-bromo-1H-indol-3-yl)methylene)hydrazineylidene]dregamine] | 13.62 ± 0.03 | – | 0.445 | 1.14 | 1.08 | 14.8 ± 2.3 | 12.9 ± 1.57 | 0.95 | Synergism
CCCCCNC(=O)NN=C1CC2C(CC)CN(C)C(Cc3c1[nH]c1ccccc31)C2C(=O)OC (stereo not drawn) [Compound 22] | 5.43 ± 0.38 | – | 0.219 | 6.24 | 4.92 | 26.7 ± 0.63 | 4.28 ± 0.25 | 0.79 | Strong Synergism
